Measured values taken from publication PMC4667271, “Discovery of a Novel Inhibitor of the Protein Tyrosine Phosphatase Shp2” (Scientific Reports, 2015).

What was measured:
[1] = molecular target: T1, Shp2 (Homo sapiens, UniProt Q06124); experiment: Kinetic analysis of Shp2 inhibition (Michaelis-Menten, Lineweaver-Burk); format: biochemical
T1 sequence (Q06124 1-593): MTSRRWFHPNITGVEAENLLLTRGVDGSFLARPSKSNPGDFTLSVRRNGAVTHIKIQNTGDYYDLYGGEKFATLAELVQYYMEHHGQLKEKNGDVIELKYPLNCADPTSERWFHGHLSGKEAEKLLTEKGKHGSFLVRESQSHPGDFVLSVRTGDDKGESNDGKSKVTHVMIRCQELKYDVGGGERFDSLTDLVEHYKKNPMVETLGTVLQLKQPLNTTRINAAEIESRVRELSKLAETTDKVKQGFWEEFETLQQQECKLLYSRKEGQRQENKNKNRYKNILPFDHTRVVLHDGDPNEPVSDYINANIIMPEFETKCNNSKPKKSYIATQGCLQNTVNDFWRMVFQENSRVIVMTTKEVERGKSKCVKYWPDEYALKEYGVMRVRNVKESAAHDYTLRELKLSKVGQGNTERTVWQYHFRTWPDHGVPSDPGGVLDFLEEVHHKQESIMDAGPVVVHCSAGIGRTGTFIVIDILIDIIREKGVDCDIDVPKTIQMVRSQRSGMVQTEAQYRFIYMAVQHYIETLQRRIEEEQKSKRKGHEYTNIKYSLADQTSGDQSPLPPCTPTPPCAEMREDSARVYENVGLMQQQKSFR
Method: In order to determine the nature of the inhibition, the phosphtase activity of Shp2 was assessed in the presence of increasing concentrations of Fumos. […] Since irreversible inhibitors generally show similar variation trend with non-competitive inhibitors in Lineweaver-Burk plot, next we investigated if the inhibition of Shp2 by Fumos is reversible. Unlike an irreversible inhibitor, a reversible inhibitor can dissociate from the enzyme. […] inhibition can be completely reversed by adding more substrates so that it reaches a much higher concentration than that of the inhibitor[31][32]. After incubation of the mixture containing Fumos and Shp2, we added 40-fold of normal amount of substrates. Sodium orthovanadate, a commonly used competitive inhibitor for PTPs, was used as a control.
(§1) The assay was set in wells of 96-well plate with a final volume of 100 μl of reaction mixture containing 10 mM of NaAc-HAc, 1 mM of ethylene diamine tetraacetic acid, 1 mM of DL-dithiothreitol and 2% of dimethyl sulfoxide, pH 5.5. Activity of the enzyme was assayed by incubating recombinant PTP protein or mutant PTP with various concentrations of Fumos in the mixture at 37 °C for 30 min. Absorbance at 405 nm was detected immediately after addition of varied concentrations of substrate, p-nitrophenyl phosphate (pNPP) to each corresponding well.

[2] = molecular target: T2, Shp2 PTP domain (Homo sapiens, UniProt Q06124); experiment: in vitro PTP assay (pNPP), Shp2 PTP domain; format: biochemical
T2 sequence (Q06124 247-517 limits assumed): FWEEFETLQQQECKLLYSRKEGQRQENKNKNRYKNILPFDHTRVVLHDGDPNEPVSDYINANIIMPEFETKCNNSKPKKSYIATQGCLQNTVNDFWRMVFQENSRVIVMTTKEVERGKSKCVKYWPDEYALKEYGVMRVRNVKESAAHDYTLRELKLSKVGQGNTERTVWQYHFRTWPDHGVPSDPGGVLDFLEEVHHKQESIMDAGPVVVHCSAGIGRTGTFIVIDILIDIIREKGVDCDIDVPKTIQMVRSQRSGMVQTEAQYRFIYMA
Method: Plasmids for expression of His-tag fusion proteins of human PTP were constructed in PET-28a by PCR subcloning techniques. The constructions contain only the PTP domain except Full-length Shp2. Full-length Shp2 containing Tyr279-to-Ala mutant was generated by PCR-based mutagenesis. All constructs were verified by DNA sequencing. PTP-His fusion proteins were expressed in Escherichia coli BL21 and lysed in the buffer (50 mM NaH2PO4, 300 mM NaCl, 250 mM imidazole, 1 mM dithiothreitol plus 5% glycerol), purified with Ni-NTA Magnetic Agarose Beads (Qiagen). The His-tag recombinant purification protocol was carried out according to the purification under native conditions of the QIAexpress System.
as §1

[3] = tested on: PMA-induced ERK1/2 phosphorylation; experiment: PMA-induced ERK1/2 activation, Western blot; details: pretreated 24 h, 100 nM PMA 5 min; even at highest concentration tested
Method: Cells were pretreated with increasing concentrations of Fumos for 24 h, and then stimulated with 100 nM PMA for 5 min. DMSO treatment as control. ERK1/2 activation was analyzed by Western-Blot with antibodies to phosphorylated ERK1/2 (pERK) or ERK1/2. GAPDH is used as a loading control for Western Blot. The control treatment is not induced by PMA.
Cells were seeded in a culture bottle at 37 °C, under 5% CO2 and 95% air. […] Then cells were collected and dissolved in the lysis buffer (50 mM Hepes-NaOH, 100 mM NaCl, 0.5%NP-40, 2.5 mM EDTA, 10% glycerol, 1 mM DTT, 1 mM PMSF, 0.7 μl/ml pepstatin, 0.5 μg/ml leupetin, 2 μg/ml aprotinin). Cell lysates were centrifuged at 4 °C with the speed of 10,000 g for 15 min. After centrifugation, the supernatant was collected. 30 μg proteins were loaded on SDS-PAGE. After electrophoresis, proteins were transferred onto PVDF meber, and immunobloted with specific antibodies, and visualized using ECL reagent. Each membrane was stripped and reprobed with anti-GAPDH antibody to ensure equal protein loading. The bands were densitometrically scanned and analyzed using a BIO-RAD Gel Analysis System.

[4] = tested on: ERK1/2 activation in transfected HEK293T cells; experiment: ERK activity after Shp2 or PTP1B overexpression in HEK293T; format: cell-based, human; details: 20 μM Fumos 24 h
Method: HEK293T, MDA-MB-231and HeLa cell lines were obtained from CRC/PUMC. Cell lines were maintained in Dulbecco’s modified Eagle’s medium supplemented with 10% fetal bovine serum. Transfections were performed in 6-well plates according to manufacturer (Invitrogen Lipofectamine LTX).Briefly, for transient transfection of HEK293T cells, subconfluent cells in 6-well plates were incubated with 2 ml of Dulbecco’s modified Eagle’s medium containing 2.5 μg of total DNA and 7.5 μl of each Lipofectamine and Plus reagent (Invitrogen) and then serum-starved in DMEM/0.1% bovine serum albumin for 18 h. After Fumos treatment for 24 h, cells were stimulated for 5 min with 20 ng/ml EGF.
Figure S2. Fumos inhibits Shp2-mediated ERK1/2 activation in human cells. […]
vectors for PTP1B and Shp2, and either untreated or treated with 20 μM Fumos for 24 h, respectively. Total cell lysates were immunoblotted with antibodies specific for […]
(1 picture or pasted object on this page, not shown here)

[5] = tested on: phosphorylation of AKT and GSK3β; experiment: EGF-induced AKT activation, Western blot; format: cell-based; details: 10-40 μM for 24 h, EGF 20 ng/ml 5 min
Description: Figure 4 Fumos doesn’t inhibit EGF-induced AKT activation. Fumos doesn’t inhibit EGF-induced AKT activation. […] DMSO treatment as control. Western blotting analysis for p-AKT, AKT, p-GSK3β and GSK3β.
After centrifugation, the supernatant was collected.

[6] = tested on: MDA-MB-231 cells; experiment: Transwell invasion assay, MDA-MB-231; format: cell-based, human; details: 4 and 14 μM, 24 h, EGF in lower chamber
Method: The invasion assay was performed in Transwell chambers according to Corning methods. Briefly, the upper chamber of a Transwell insert ([…] pore size) was coated with 40 μl 1:6 mixture of Matrigel (BD Biosciences, Bedford): Opti-MEM (Invitrogen) for MDA-MB-231 and 40 μl 1:12 mixture of Matrigel: Opti-MEM (Invitrogen) for HeLa cells and dried for 2 h at 37 °C. The lower chamber was filled with serum-free media containing 10 ng/ml EGF. Cells were seeded into upper chamber at a density 5 × 10^4 cells/ml per well in serum-free media. Cells were treated with series concentrations of Fumos for 24 h. The top aspect of the membrane was gently swabbed the inside of each insert using cotton swabs, and cells that invaded on the lower surface of the membrane were fixed using methanol and stained with crystal violet (Beyotime Institute of Biotechnology). Random fields were counted and photographed by microscope (Olympus).

CC[C@@H](C)C[C@@H](C)/C=C(C)/C=C/C=C/C=C(\C)C(=O)c1c(O)c(-c2ccc(O)cc2)cn(O)c1=O [Fumos, Fumosorinone]
Vmax ([1]; 4 μM fumosorinone, substrate pNPP): 7.63 ± 0.42 S^−1
Vmax ([1]; 8 μM fumosorinone, substrate pNPP): 2.73 ± 0.41 S^−1
type of inhibition ([1]; Lineweaver-Burk analysis): classic noncompetitive inhibitor
Km ([1]; substrate pNPP, fit over 0, 4 and 8 μM fumosorinone): 6.75 ± 0.84 mM
IC50 [2]: 6.31 ± 0.52 µM
IC50 selective ([2]; Shp2 relative to Shp2 PTP domain): 1
PMA-induced ERK1/2 phosphorylation [3]: did not inhibit
ERK activity after Fumos treatment in cells transfected with PTP1B [4]: little recovery
ERK activity after Fumos treatment in cells transfected with Shp2 [4]: partially recovered
EGF-induced phosphorylation of AKT [5]: did not inhibit
EGF-induced phosphorylation of GSK3β [5]: did not inhibit
cell invasion (Transwell) [6]: significantly inhibited
